Experimental data published in patent publication US20260265279A1, “RHO-ASSOCIATED PROTEIN KINASE INHIBITOR AND PREPARATION AND USE THEREOF” (Shanghai Zhimeng Biopharma, Inc, priority 2022, published 2026).

Legend:
ROCK2 = molecular target: T1, ROCK2 (Homo sapiens, UniProt O75116); assay: Kinase IC50 assay, HTRF kinEASE STK S2 kit, ROCK2; format: biochemical; details: ATP 1 μM, 2.5 ng/well enzyme, 120 min
T1 construct: purchased Invitrogen PV3759
Procedure: (§1) Kinase IC50 assay was performed using the kinase assay kit HTRF kinEASE STK S2 kit (Cat #62ST2PEC, Cisbio). Kinases ROCK1 (Cat #PV3691) and ROCK2 (Cat #PV3759) were purchased from Invitrogen.
(§2) The working solution required for the assay was prepared with the appropriate reagents as described in the kinase assay kit instructions:
(§3) 1 mL of 1× Kinase Buffer contains 200 μL 5× Enzyme buffer, 5 μL 1M MgCl2 (Cat.M8266, Sigma), 1 μL 1M DTT (Cat.D5545, Sigma), 794 μL ddH2O.
(§4) The specific concentrations of STK-biotin substrate and ATP are shown in Table A. STK-biotin substrate and ATP were diluted with 1× kinase buffer to 2.5 times of the reaction concentration.
(§5) Concentrations of ROCK1/ROCK2 are shown in Table A. 5×ROCK1/ROCK2 Kinase working solution was prepared with 1× Kinase Buffer.
(§6) See Table A for the concentrations of Streptavidin-XL665 and STK Antibody-Cryptate in the reaction. 2× Streptavidin-XL665 and STK Antibody-Cryptate Working Solutions were prepared 5 minutes prior to the end of the kinase reaction using Detection Buffer from the kit.
(§7) A 100 μM compound mother solution was prepared using 1× kinase buffer containing 2.5% DMSO, and the mother solution was diluted 4-fold stepwise with the above DMSO-containing kinase buffer to obtain nine different concentrations of the compound solutions to be tested. In addition to the test compound wells, positive control wells (containing all reagents except the compounds) and negative control wells (containing all reagents except the compounds and kinase) were set up. 4 μL of the test compound solution was added to all reaction wells except the control wells and 4 μL of 2.5% DMSO solution was added to the control wells. Then 4 μL of previously prepared substrate and ATP working solution were added to all wells and mix well. Then, 2 μL/well of 5×ROCK1/ROCK2 kinase working solution (containing 2.5 ng ROCK1/ROCK2 kinase) was added to all reaction wells except negative control wells, and the negative control wells were made up to volume with 2 μL of 1× kinase buffer. Mix well, seal with plastic film and incubate at room temperature for 2 hours. Start preparing the assay solution 5 minutes before the end of the kinase reaction. After the end of the kinase reaction, 10 μL of prepared Streptavidin-XL665 and STK Antibody-Cryptate working solution were added to all reaction wells, the plates were sealed and mixed well, and then incubated at room temperature for 1 hour. Finally, the fluorescence signal was detected by SpectraMax i3x Multi-Mode Reader (Molecular Devices) (excitation wavelength is 320 nm, emission wavelength is 665 nm and 615 nm).
(§8) The inhibition rate in each well was calculated from the fluorescence intensity values of each well:
(§9) ER Emission Ratio, Emission light ratio=fluorescence intensity at 665 nm/fluorescence intensity at 615 nm;
(§10) ERcompound, ER of test compound wells; ERvehicle, ER of solvent (positive) control wells, ERblank, ER of blank (negative) control wells.
(§11) The graphs were plotted using the software GraphPad Prism 6.0, while the half inhibitory concentration (IC50) of each compound to be tested was obtained by fitting with Prism 6.0.

ROCK1 = molecular target: T2, ROCK1 (Homo sapiens, UniProt Q13464); assay: Kinase IC50 assay, HTRF kinEASE STK S2 kit, ROCK1; format: biochemical; details: ATP 1.5 μM, 2.5 ng/well enzyme, 120 min
T2 construct: purchased Invitrogen PV3691
Procedure: as §1, §2, §3, §4, §5, §6, §7, §8, §9, §10, §11

T1 sequence (O75116 5-554 limits assumed): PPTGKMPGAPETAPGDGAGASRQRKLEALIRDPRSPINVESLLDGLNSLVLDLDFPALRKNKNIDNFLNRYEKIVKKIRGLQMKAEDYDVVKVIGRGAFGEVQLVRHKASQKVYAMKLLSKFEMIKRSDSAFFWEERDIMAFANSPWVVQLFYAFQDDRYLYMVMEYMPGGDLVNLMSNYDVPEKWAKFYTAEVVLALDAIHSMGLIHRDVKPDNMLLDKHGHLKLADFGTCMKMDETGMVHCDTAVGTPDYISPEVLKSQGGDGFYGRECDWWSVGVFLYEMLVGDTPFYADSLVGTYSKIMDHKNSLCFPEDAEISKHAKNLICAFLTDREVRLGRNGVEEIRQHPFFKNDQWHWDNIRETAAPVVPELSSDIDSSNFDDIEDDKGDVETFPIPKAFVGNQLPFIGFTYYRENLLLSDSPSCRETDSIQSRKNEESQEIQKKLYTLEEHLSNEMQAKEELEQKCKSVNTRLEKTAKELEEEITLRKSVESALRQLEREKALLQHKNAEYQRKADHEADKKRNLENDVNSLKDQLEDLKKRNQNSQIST
T2 sequence (Q13464 1-535 limits assumed): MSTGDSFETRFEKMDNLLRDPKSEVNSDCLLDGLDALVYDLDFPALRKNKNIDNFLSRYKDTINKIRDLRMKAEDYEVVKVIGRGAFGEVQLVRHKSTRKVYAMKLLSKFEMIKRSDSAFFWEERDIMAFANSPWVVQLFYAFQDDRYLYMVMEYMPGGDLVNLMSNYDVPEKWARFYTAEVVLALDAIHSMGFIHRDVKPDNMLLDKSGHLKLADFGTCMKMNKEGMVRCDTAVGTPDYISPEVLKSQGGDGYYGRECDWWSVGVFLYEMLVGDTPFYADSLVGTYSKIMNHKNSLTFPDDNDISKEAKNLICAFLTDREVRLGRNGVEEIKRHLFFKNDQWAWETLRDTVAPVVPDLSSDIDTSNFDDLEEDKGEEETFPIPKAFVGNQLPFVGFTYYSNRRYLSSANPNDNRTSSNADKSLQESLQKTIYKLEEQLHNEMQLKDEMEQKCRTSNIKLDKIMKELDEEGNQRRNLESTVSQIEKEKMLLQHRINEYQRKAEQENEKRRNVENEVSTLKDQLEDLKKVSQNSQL

| IC50 (ROCK2) | IC50 (ROCK1) | Structure (SMILES) |
| --- | --- | --- |
| 3.49 µM | > 100 µM | Cn1c(C#Cc2ncc(C#N)c(Nc3ccc(-c4cn[nH]c4)cc3)n2)ccc1C(=O)N1CC(F)(F)C1 [Compound A8] |
| 0.0192 µM | 64 µM | Cn1c(C(=O)N2CC(F)(F)C2)cc(C2CC2)c1C#Cc1ncc(F)c(Nc2cc(F)c(-c3cn[nH]c3)cc2F)n1 [Compound A54] |
| 2 µM | 57.1 µM | O=C(c1cccc(C#Cc2nccc(Nc3ccc(-c4cn[nH]c4)cc3)n2)c1)N1CC(F)(F)C1 [Compound A29] |
| 0.274 µM | > 100 µM | Cn1c(C#Cc2ncc(F)c(Nc3ccc4c(=O)[nH]ccc4c3)n2)ccc1C(=O)N1CC(F)(F)C1 [Compound A27] |
| 0.0867 µM | > 100 µM | CN1Cc2nc(C#Cc3ccc(C(=O)N4CC(F)(F)C4)n3C)nc(Nc3ccc(-c4cn[nH]c4)cc3)c2C1 [Compound A11] |
| 0.303 µM | 3.9 µM | Cn1c(C#Cc2nccc(Nc3ccc4[nH]ncc4c3)n2)ccc1C(=O)N1CC(F)(F)C1 [Compound A2] |
| 1.06 µM | 50.3 µM | Cn1nc(C#Cc2nccc(Nc3ccc(-c4cn[nH]c4)cc3)n2)cc1C(=O)N1CC(F)(F)C1 [Compound A17] |
| 0.0352 µM | 8.8 µM | Cc1cc(C(=O)N2CC(F)(F)C2)n(C)c1C#Cc1nc(C)c(F)c(Nc2ccc(-c3cn[nH]c3)c(F)c2)n1 [Compound A45] |
| 0.0127 µM | > 100 µM | Cc1cc(C(=O)N2CC(F)(F)C2)n(C)c1C#Cc1ncc(F)c(Nc2ccc(-c3cn[nH]c3C)cc2)n1 [Compound A44] |
| 1.1 µM | > 100 µM | O=C(c1ccc(C#Cc2nccc(Nc3ccc(-c4cn[nH]c4)cc3)n2)cc1)N1CC(F)(F)C1 [Compound A28] |
| 0.161 µM | > 100 µM | O=C(c1cccc(C#Cc2ncc(F)c(Nc3cc(F)c(-c4cn[nH]c4)cc3F)n2)n1)N1CC(F)(F)C1 [Compound A46] |
| 0.206 µM | > 100 µM | O=C(c1cccc(C#Cc2nccc(Nc3ccc(-c4cn[nH]c4)cc3)n2)n1)N1CC(F)(F)C1 [Compound A20] |
| 0.445 µM | > 100 µM | O=C1c2ccc(C#Cc3ncc(F)c(Nc4ccc(-c5cn[nH]c5)cc4)n3)n2CCN1CC(F)(F)F [Compound A38] |
| 0.0349 µM | 29.6 µM | Cc1[nH]ncc1-c1ccc(Nc2nc(C#Cc3ccc(C(=O)N4CC(F)(F)C4)n3C)ncc2F)cc1 [Compound A16] |
| 0.199 µM | 32.3 µM | Cc1cc(Nc2ccnc(C#Cc3ccc(C(=O)N4CC(F)(F)C4)n3C)n2)ccc1-c1cn[nH]c1 [Compound A12] |
| 0.0573 µM | > 100 µM | CC(C)c1cc(C(=O)N2CC(F)(F)C2)n(C)c1C#Cc1ncc(F)c(Nc2cc(F)c(-c3cn[nH]c3)cc2F)n1 [Compound A55] |
| 0.476 µM | > 100 µM | Cc1cc(C(=O)N2CC(F)(F)C2)n(C)c1C#Cc1ncc(F)c(Nc2cc(F)c(-c3cn[nH]c3C)cc2F)n1 [Compound A47] |
| 2.35 µM | 53.8 µM | Cn1cc(C#Cc2nccc(Nc3ccc(-c4cn[nH]c4)cc3)n2)cc1C(=O)N1CC(F)(F)C1 [Compound A18] |
| 0.754 µM | > 100 µM | O=C(c1ccc(C#Cc2nccc(Nc3ccc(-c4cn[nH]c4)cc3)n2)nc1)N1CC(F)(F)C1 [Compound A21] |
| 0.0778 µM | > 100 µM | Cn1c(C#Cc2nc3c(c(Nc4ccc(-c5cn[nH]c5)cc4)n2)COC3)ccc1C(=O)N1CC(F)(F)C1 [Compound A10] |
| 0.005 µM | 4.93 µM | Cc1cc(C(=O)N2CC(F)(F)C2)n(C)c1C#Cc1ncc(F)c(Nc2ccc(-c3cn[nH]c3)c(F)c2)n1 [Compound A42] |

| IC50 (ROCK2) | IC50 (ROCK1) | Structure (SMILES) |
| --- | --- | --- |
| 0.202 µM | 35.2 µM | Cc1nc(C#Cc2ccc(C(=O)N3CC(F)(F)C3)n2C)nc(Nc2ccc(-c3cn[nH]c3)cc2)c1C [Compound A6] |
| 0.131 µM | > 100 µM | Cc1cc(C(=O)N2CC(F)(F)C2)n(C)c1C#Cc1ncc(F)c(Nc2ccc(-c3cn[nH]c3C)cc2F)n1 [Compound A51] |
| 0.421 µM | > 100 µM | Cn1c(C#Cc2ncc(F)c(Nc3ccc(-c4c[nH]nc4F)cc3)n2)ccc1C(=O)N1CC(F)(F)C1 [Compound A15] |
| 0.585 µM | > 100 µM | Cc1n[nH]c(C)c1-c1ccc(Nc2ccnc(C#Cc3ccc(C(=O)N4CC(F)(F)C4)n3C)n2)cc1 [Compound A14] |
| 0.186 µM | 80 µM | Cc1cnc(C#Cc2ccc(C(=O)N3CC(F)(F)C3)n2C)nc1Nc1ccc(-c2cn[nH]c2)cc1 [Compound A4] |
| 0.0193 µM | > 100 µM | Cc1cc(C(=O)N2CC(O)C2)n(C)c1C#Cc1ncc(F)c(Nc2cc(F)c(-c3cn[nH]c3)cc2F)n1 [Compound A56] |
| 0.0515 µM | 20.6 µM | Cc1cc(C(=O)N2CC(F)(F)C2)n(C)c1C#Cc1ncc(F)c(Nc2cc(F)c(-c3cn[nH]c3C)c(F)c2)n1 [Compound A43] |
| 0.0172 µM | > 100 µM | Cc1cc(C(=O)N2CC(F)(F)C2)n(C)c1C#Cc1ncc(F)c(Nc2cc(F)c(-c3cn[nH]c3)c(F)c2)n1 [Compound A40] |
| 0.0544 µM | > 100 µM | Cn1c(C#Cc2ncc(F)c(Nc3ccc(-c4cn[nH]c4)cc3)n2)ccc1C(=O)N1CC(F)(F)C1 [Compound A7] |
| 0.0724 µM | > 100 µM | Cc1cc(C(=O)N2CC(F)(F)C2)n(C)c1C#Cc1ncc(F)c(Nc2cnc(-c3cn[nH]c3)c(F)c2)n1 [Compound A41] |
| 0.091 µM | > 100 µM | Cc1cc(Nc2ccc(-c3cn[nH]c3)cc2)nc(C#Cc2ccc(C(=O)N3CC(F)(F)C3)n2C)n1 [Compound A5] |
| 0.0177 µM | 37.4 µM | Cc1cc(C(=O)N2CC(F)(F)C2)n(C)c1C#Cc1ncc(F)c(Nc2cc(F)c(-c3cn[nH]c3)cc2F)n1 [Compound A49] |
| 0.232 µM | 30.7 µM | CCn1c(C#Cc2nccc(Nc3ccc(-c4cn[nH]c4)cc3)n2)ccc1C(=O)N1CC(F)(F)C1 [Compound A32] |
| 0.0324 µM | > 100 µM | COC1CN(C(=O)c2cc(C)c(C#Cc3ncc(F)c(Nc4cc(F)c(-c5cn[nH]c5)cc4F)n3)n2C)C1 [Compound A57] |
| 0.42 µM | > 100 µM | Cn1c(C#Cc2nc(Nc3ccc(-c4cn[nH]c4)cc3)c3ccccc3n2)ccc1C(=O)N1CC(F)(F)C1 [Compound A37] |
| 0.702 µM | > 100 µM | Cn1c(C#Cc2ncnc(Nc3ccc(-c4cn[nH]c4)cc3)n2)ccc1C(=O)N1CC(F)(F)C1 [Compound A9] |
| 3.59 µM | 40.9 µM | Cc1c(Nc2ccnc(C#Cc3ccc(C(=O)N4CC(F)(F)C4)n3C)n2)ccc2[nH]ncc12 [Compound A22] |
| 50.5 µM | > 100 µM | O=C(c1ccc(C#Cc2nccc(Nc3ccc(-c4cn[nH]c4)cc3)n2)s1)N1CC(F)(F)C1 [Compound A19] |
| 0.0377 µM | 18.4 µM | Cc1cc(C(=O)N2CC(F)(F)C2)n(C)c1C#Cc1ncc(F)c(Nc2cnc(-c3cn[nH]c3C)cc2F)n1 [Compound A48] |
| 0.0089 µM | 0.073 µM | Cc1cc(C(=O)N2CC(F)(F)C2)n(C)c1C#Cc1nc2c(c(Nc3cc(F)c(-c4cn[nH]c4)c(F)c3)n1)COC2 [Compound A50] |
| 0.118 µM | 41.9 µM | O=C(c1ccc(C#Cc2nccc(Nc3ccc(-c4cn[nH]c4)cc3)n2)n1C1CC1)N1CC(F)(F)C1 [Compound A30] |
